According to PMC5607274, “An iterative compound screening contest method for identifying target protein inhibitors using the tyrosine-protein kinase Yes” (Scientific Reports, 2017):

Target: T1, human recombinant Yes [a.a. 2–543 (end)] (Homo sapiens, UniProt P07947)
T1 construct: human recombinant Yes [a.a; 2–543 (end)]; purchased BPS Bioscience 40488
Assay: ADP-Glo kinase assay, inhibition rates of Yes phosphorylation activity (first and second screening)
Assay type: biochemical
Conditions: 10 μmol L−1 compound; for First screening IR (inhibition rate): mean of n = 4 wells
Description: All inhibitory assays of the phosphorylation activity of Yes were performed in accordance with the Promega Technical Manual for the ADP-Glo™ Kinase Assay (Fitchburg, WI, USA. Catalog number: V9102). The human recombinant Yes [a.a. 2–543 (end)] was purchased from BPS Bioscience (catalog number: 40488). The details of the assay protocol and reagent information are given elsewhere.
The screening was conducted in three steps consisting of the first screening, the second screening, and the IC50 determination, as can be illustrated in Fig. 1b. First, we determined the inhibition rates of the 1,991 compounds. Each compound was placed in 4 wells of a 384-well plate. In total, 80 compounds were assayed on one plate and the other wells were used for positive and negative controls. The compounds were randomly placed on plates so that compounds proposed by one group were not placed on a plate together. A mean of four inhibition rates for each compound was compared to criteria for the first screening. […] Second, the inhibition rates of the screened compounds were determined on one plate using the same procedure of the first screening, where compounds were dissolved from fresh powder. […] Screened compounds were then evaluated for their IC50 values.

T1 sequence (P07947 2-543): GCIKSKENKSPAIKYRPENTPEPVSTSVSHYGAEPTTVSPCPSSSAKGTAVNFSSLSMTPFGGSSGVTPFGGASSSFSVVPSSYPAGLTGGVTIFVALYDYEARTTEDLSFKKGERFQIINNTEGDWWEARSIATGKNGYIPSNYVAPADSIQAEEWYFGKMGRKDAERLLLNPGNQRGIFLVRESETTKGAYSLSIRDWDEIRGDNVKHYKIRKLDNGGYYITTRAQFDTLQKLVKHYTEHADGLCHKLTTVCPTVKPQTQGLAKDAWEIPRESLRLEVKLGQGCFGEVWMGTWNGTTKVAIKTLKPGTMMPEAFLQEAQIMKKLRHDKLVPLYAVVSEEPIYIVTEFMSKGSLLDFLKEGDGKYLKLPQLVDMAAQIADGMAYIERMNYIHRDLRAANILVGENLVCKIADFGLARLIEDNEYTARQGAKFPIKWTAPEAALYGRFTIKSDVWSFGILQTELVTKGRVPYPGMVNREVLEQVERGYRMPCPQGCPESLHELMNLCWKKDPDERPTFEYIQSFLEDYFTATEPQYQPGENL

Row | Compound | First screening IR (inhibition rate) | Second screening IR (inhibition rate) (second screening, dissolved from fresh powder, n = 4)
1 | CC1CN(CCCNc2ccc([N+](=O)[O-])c3nonc23)CC(C)O1 (stereo not shown) [Compound Z238688270] | 4% | –
2 | O=C(COc1c(Br)cc(Br)c2cccnc12)N1CCCCC1 [Compound Z19811005] | 5% | –
3 | Cn1c(=O)[nH]c(=O)c2c1nc(N1CCN(C/C=C/c3ccccc3)CC1)n2Cc1ccc(Cl)cc1 [Compound Z246071802] | -14% | –
4 | Cc1ncc(C(=O)NC(C)c2cccc(NC(=O)c3ccccc3)c2)[nH]1 (stereo not shown) [Compound Z1171689075] | -17% | –
5 | CCCCOc1ccc(/C=C2/C(=O)Nc3ccc(Cl)cc32)cc1 [Compound Z44304381] | 6% | –
6 | Cc1[nH]n(-c2ccccc2)c(=O)c1/C(=N/NC(=O)c1cc(-c2ccccc2)n[nH]1)c1ccccc1 [Compound Z56919929] | 1% | –
7 | NC(=O)c1cc(NC(=O)COC(=O)c2c3c(nc4ccccc24)/C(=C\c2ccccc2Cl)CC3)cc(C(N)=O)c1 [Compound Z18607575] | 10% | –
8 | CS(=O)(=O)Cc1ccc(CNc2ccnc3c(F)ccc(F)c23)cc1 [Compound Z983418922] | -17% | –
9 | Cl.Nc1ccc(-c2cc(-c3ccccc3)c3cc(Cl)ccc3n2)cc1 [Compound Z56913268] | -5% | –
10 | NNc1ncnc2c1cnn2Cc1ccccc1 [Compound Z58286928] | -12% | –
11 | c1cc(-c2nc3c(c(N4CCCC(N5CCCC5)C4)n2)CCC3)ccn1 (stereo not shown) [Compound Z1070397714] | 56% | –
12 | Cc1cccc(CS(=O)(=O)CCS(C)(=O)=O)c1 [Compound Z822335078] | -2% | –
13 | O=C(NCCSc1ccc(Br)cc1)c1ccc2nc[nH]c2c1 [Compound Z30463043] | 7% | –
14 | CCN(CCCNC(=O)c1cn(-c2ccccc2)nc1-c1cccnc1)c1ccccc1 [Compound Z96041573] | -8% | –
15 | CN(Cc1ccc(F)cc1F)C(=O)c1cc(-c2ccccc2)nc2c1cnn2Cc1ccncc1 [Compound Z283846026] | 11% | –
16 | COc1ccc(Nc2nc(N3CCCCC3)nc(N)c2[N+](=O)[O-])cc1 [Compound Z245295930] | 8% | –
17 | COc1ccc(-c2cc(C(=O)O)c3cnn(C(C)C)c3n2)cc1OC [Compound Z56643618] | 9% | –
18 | CCn1c(CN2CCN(C(=O)c3ccccc3)CC2)nc2cc(S(=O)(=O)N3CCOCC3)ccc21 [Compound Z46404320] | 1% | –
19 | CCc1cccc(CC)c1NC(=O)COC(=O)CC1c2ccccc2CCN1S(=O)(=O)c1ccc(F)cc1 (stereo not shown) [Compound Z56803956] | 27% | –
20 | Cc1cc(=O)c(C(=O)N2CCC(C(=O)N3CCCCCC3)CC2)nn1-c1ccccc1F [Compound Z117548264] | 2% | –
21 | O=C(Nc1nc(-c2ccc[nH]2)cs1)c1csc(-c2ccco2)n1 [Compound Z296244664] | -6% | –
22 | CCn1ncc2c(C(=O)N3CCN(CC(=O)Nc4cccc(C)c4C)CC3)cc(-c3ccccc3)nc21 [Compound Z224933090] | -4% | –
23 | CC(NC(c1ccccc1)c1ccccn1)c1ccncc1 (stereo not shown) [Compound Z335491150] | 3% | –
24 | COc1ccc(-c2c(C#N)c(=O)[nH]c3c2c(C)nn3-c2ccccc2)cc1OC [Compound Z1007027518] | -1% | –
25 | Cc1n[nH]c(C)c1S(=O)(=O)Nc1cccc(/C=C/c2ccccn2)c1 [Compound Z45649828] | 36% | 0%
26 | Cc1ccc(C)c(-n2nnnc2SC(C)C(=O)Nc2ccc(Cl)cn2)c1 (stereo not shown) [Compound Z21689617] | 8% | –
27 | Cc1ccc2c(c1)/C(=N/n1cnc3ccccc31)C(=O)N2 [Compound Z56789395] | 3% | –

Continued, values first:

Row | First screening IR (inhibition rate) | Second screening IR (inhibition rate) (second screening, dissolved from fresh powder, n = 4) | Compound
28 | -8% | – | NC(=O)Nc1ccc(C(=O)NCCC(c2ccccc2)c2ccccc2)cc1 [Compound Z26815125]
29 | -8% | – | N#Cc1ccccc1CSCCNc1cc(=O)n2ccccc2n1 [Compound Z203909940]
30 | 52% | – | CN(CC1CC1)c1ccc(S(C)(=O)=O)cc1S(C)(=O)=O [Compound Z666145136]
31 | 1% | – | CCc1c(C(=O)Nc2n[nH]c(-c3ccc(C)cc3)n2)cnn1-c1ccccc1 [Compound Z332932578]
32 | 1% | – | Cc1csc(CNC(=O)c2cc(-c3ccccc3)nc3c2cnn3C(C)C)n1 [Compound Z225893888]
33 | 29% | – | C=CCN1C(=O)c2ccc(C(=O)OCc3cn4ccccc4n3)cc2C1=O [Compound Z16715300]
34 | 6% | – | Cc1cn2c3c(=O)n(CC(C)C)c(=O)n(C)c3nc2n1-c1ccc(N(C)C)cc1 [Compound Z281877508]
35 | 3% | – | CC(C)N(CCNC(=O)CCc1nnc2n(Cc3ccccc3)c(=O)c3ccccc3n12)Cc1ccco1 [Compound Z1169067733]
36 | 21% | – | CN(CC(=O)Nc1cccc(F)c1)C(=O)c1cc2ccccc2cc1O [Compound Z26987740]
37 | 2% | – | CNS(=O)(=O)c1cccc(S(=O)(=O)N(C)C)c1 [Compound Z285953204]
38 | -3% | – | FC(F)(F)c1ccnc(Nc2ccc3nc(C4CC4)sc3c2)n1 [Compound Z929767438]
39 | 50% | – | O=S1(=O)CCC(S(=O)(=O)NC2CCCCCC2)CC1 [Compound Z968739862]
40 | 3% | – | COc1cccc(NC(=O)CN(C)CC(=O)Nc2cc(Cl)ccc2C#N)c1 [Compound Z46385937]
41 | -20% | – | O=C(CCc1ccc2ccccc2n1)OCCOc1ccc(S(=O)(=O)N2CCOCC2)cc1 [Compound Z166077876]
42 | 3% | – | COc1ccc(CCNC(=O)C(C#N)c2nc3ccccc3nc2N2CCN(Cc3ccccc3)CC2)cc1 (stereo not shown) [Compound Z56851971]
43 | 2% | – | Cc1ccc(NC2CCN(Cc3ccncc3)CC2)c(CN(C)C)c1 [Compound Z1642185485]
44 | -7% | – | CCc1ccc(CNc2cccc(NC(=O)OCCOC)c2)o1 [Compound Z1420504830]
45 | 31% | – | CS(=O)(=O)c1ccc(F)c(S(C)(=O)=O)c1 [Compound Z652718652]
46 | 3% | – | Cc1ccc(S(=O)(=O)N(C)S(=O)(=O)c2ccc(C#N)cc2)cc1 [Compound Z45549760]
47 | 17% | – | Cc1cc(N2CCCC(N3CCN(C(=O)c4ccncc4)CC3)C2=O)n(C)n1 (stereo not shown) [Compound Z1629496420]

Row | First screening IR (inhibition rate) | Second screening IR (inhibition rate) (second screening, dissolved from fresh powder, n = 4) | Compound
48 | 7% | – | CN(C)S(=O)(=O)c1ccc(Cl)c(S(=O)(=O)N(C)C)c1 [Compound Z56877204]
49 | -7% | – | CNc1snc(C)c1C(=O)OCc1csc(-c2ccc(F)cc2)n1 [Compound Z166256344]
50 | -6% | – | CCN(CCC#N)S(=O)(=O)c1cccc(S(C)(=O)=O)c1 [Compound Z1116704440]
51 | 9% | – | CN(C)c1nc(N)nc(CSCCOc2ccccc2F)n1 [Compound Z197453168]
52 | 70% | – | COc1ccc2[nH]c(C)c(C(=O)NCC(C)(C)c3cccc(F)c3)c2c1 [Compound Z1482480186]
53 | 19% | – | Cc1nccn1-c1cncc(NCc2cc(-c3ccccc3)on2)n1 [Compound Z1798299891]
54 | -1% | – | CC(c1ccc(F)c(F)c1)N(C)c1ncnc2c1cnn2C (stereo not shown) [Compound Z328694928]
55 | -21% | – | FC(F)(F)c1ccnc(Nc2ccc(N3CCCCCC3)cc2)n1 [Compound Z642699568]
56 | 23% | – | O=C(Oc1cccnc1Br)c1nn(-c2ccccc2)c(=O)c2ccccc12 [Compound Z817738176]
57 | 13% | – | COc1ccccc1-c1cc(NC(=O)c2ccc(Cn3cncn3)cc2)n[nH]1 [Compound Z927972178]
58 | -21% | – | CC(O)(CNc1ccnc2c(F)cc(Br)cc12)CN1CCOCC1 (stereo not shown) [Compound Z1601616896]
59 | 7% | – | CCN(CC(C)C)c1ccc(S(C)(=O)=O)cc1S(C)(=O)=O [Compound Z666139280]
60 | -5% | – | COc1ccccc1NC(=O)C1=C(C)Nc2nc(SCc3ccccc3)nn2C1c1ccncc1 (stereo not shown) [Compound Z1227522997]
61 | -15% | – | Cc1cc(NCC(O)COc2ccc(F)cc2)nc2ccccc12 (stereo not shown) [Compound Z815806580]
62 | 6% | – | N#Cc1ccc(-c2cc(-c3ccc(Cl)cc3)c3ccccc3n2)cc1 [Compound Z415722774]
63 | -4% | – | Cc1cnc(COC(=O)c2cc(-c3ccccn3)ccc2Cl)cn1 [Compound Z1514764424]
64 | -2% | – | CN1C/C(=C/c2ccc(F)cc2)c2nc3ccccc3c(C(=O)O)c2C1 [Compound Z46114693]
65 | 13% | – | O=C(CN1CCN(c2nc(-c3ccccn3)nc3scc(-c4ccccc4)c23)CC1)N1CCCCC1 [Compound Z165261492]
66 | 37% | – | CNC(=O)c1cccc(NCc2cc(C)ccc2O)n1 [Compound Z1743524859]
